# Measurements taken from US20060216238A1, “Compositions and methods for targeting or imaging a tissue in a vertebrate subject” (priority 2005, published 2006).
# Columns and labels:
# [1] = molecular target: KDR receptor (VEGFR2) (Homo sapiens, UniProt P35968); assay: Binding assay using ELISA
# [2] = Stability of CPMV particles in simulated gastric conditions (SGF, SIF); assay type: in vitro ADME
# Description: Stability of CPMV particles in simulated gastric conditions. Simulated gastric fluid (SGF) and simulated intestinal fluid (SIF) were prepared according to Takagi et al. Takagi et al., Biol. Pharm. Bull 26:969-973, 2003. Briefly, pepsin (3.8 mg; Sigma) was dissolved into 5 ml of gastric control fluid (2 mg/ml NaCl, pH 2.0). SIF was prepared by dissolving pancreatin, (10 mg/ml; Sigma) in intestinal control fluid (0.05 M […], pH 6.8). Both solutions were used within the same day. SGF (400 μl) was first incubated at 37° C. for 2 minutes before addition of CPMV (200 μg), giving a ratio of 10 U of pepsin activity/μg of CPMV. The tube contents were mixed by mild vortexing and the tube was immediately placed in a 37° C. water bath for time points ranging from 0-60 minutes, followed by neutralization with 70 μl of 200 mM sodium bicarbonate solution. Similarly, SIF was incubated at 37° C. for 2 minutes before addition of CPMV (200 μg) and the tube contents were placed in a 37° C. water bath for time points up to 120 minutes. Aliquots of virus exposed to SGF or SIF were mixed with 5 μl of NuPAGE 4× LDS-sample buffer, run on 4-12% SDS-PAGE gels, and stained with Simply Blue Safe Stain (Invitrogen). […]
# [3] = RT-PCR detection of CPMV RNA in tissues of mice inoculated i.v.; conditions: for CPMV RNA detected in bone marrow, mice positive/examined / CPMV RNA detected in brain, mice positive/examined / CPMV RNA detected in duodenum, mice positive/examined / CPMV RNA detected in ileum, mice positive/examined / CPMV RNA detected in jejunum, mice positive/examined / CPMV RNA detected in kidney, mice positive/examined / CPMV RNA detected in liver, mice positive/examined / CPMV RNA detected in lung, mice positive/examined / CPMV RNA detected in spleen, mice positive/examined / CPMV RNA detected in stomach, mice positive/examined: i.v.
# Chain of KDR receptor (VEGFR2) (P35968 20-1356): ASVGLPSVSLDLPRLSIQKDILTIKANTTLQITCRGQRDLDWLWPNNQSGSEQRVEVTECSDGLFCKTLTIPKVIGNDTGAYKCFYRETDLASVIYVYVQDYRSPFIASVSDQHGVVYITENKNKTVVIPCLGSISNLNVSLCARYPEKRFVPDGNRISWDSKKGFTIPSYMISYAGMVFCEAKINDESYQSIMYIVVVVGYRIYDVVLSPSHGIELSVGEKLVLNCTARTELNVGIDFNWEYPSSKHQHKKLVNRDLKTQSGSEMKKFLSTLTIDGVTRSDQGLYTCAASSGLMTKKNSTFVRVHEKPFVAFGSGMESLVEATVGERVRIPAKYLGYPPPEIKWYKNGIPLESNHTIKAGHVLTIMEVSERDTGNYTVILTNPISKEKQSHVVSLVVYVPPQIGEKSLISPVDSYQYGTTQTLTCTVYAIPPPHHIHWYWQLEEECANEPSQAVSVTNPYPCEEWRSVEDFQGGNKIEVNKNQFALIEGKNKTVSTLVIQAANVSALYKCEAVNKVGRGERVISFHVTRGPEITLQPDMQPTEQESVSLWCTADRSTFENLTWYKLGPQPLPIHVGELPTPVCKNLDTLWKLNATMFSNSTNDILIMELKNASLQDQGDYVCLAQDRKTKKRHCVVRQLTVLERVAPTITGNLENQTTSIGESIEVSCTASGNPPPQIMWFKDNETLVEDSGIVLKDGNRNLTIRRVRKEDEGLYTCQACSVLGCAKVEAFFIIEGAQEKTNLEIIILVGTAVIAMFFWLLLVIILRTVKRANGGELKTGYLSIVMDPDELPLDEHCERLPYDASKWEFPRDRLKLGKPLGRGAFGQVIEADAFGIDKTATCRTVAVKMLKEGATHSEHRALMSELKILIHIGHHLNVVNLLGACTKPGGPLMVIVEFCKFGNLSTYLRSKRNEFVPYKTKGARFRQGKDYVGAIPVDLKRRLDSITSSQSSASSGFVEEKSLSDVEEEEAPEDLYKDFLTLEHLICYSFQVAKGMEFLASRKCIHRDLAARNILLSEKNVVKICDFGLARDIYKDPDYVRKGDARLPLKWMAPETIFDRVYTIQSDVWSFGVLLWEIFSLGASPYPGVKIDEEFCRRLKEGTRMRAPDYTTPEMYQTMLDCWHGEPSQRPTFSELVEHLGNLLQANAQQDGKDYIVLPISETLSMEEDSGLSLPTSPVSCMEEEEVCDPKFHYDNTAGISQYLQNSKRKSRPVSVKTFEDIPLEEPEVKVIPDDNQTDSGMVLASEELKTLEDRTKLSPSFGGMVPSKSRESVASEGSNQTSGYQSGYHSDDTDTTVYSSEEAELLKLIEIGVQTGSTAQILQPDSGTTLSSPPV
substance,measurement,setting,value
cowpea mosaic virus [CPMV],binding to KDR receptor in ELISA,[1],did not show any detectable binding
same,integrity on Coomassie-stained gel after SGF,"[2]; SGF, pepsin pH 2.0, 37° C., 0-60 minutes",remained intact
same,integrity on Coomassie-stained gel after SIF,"[2]; SIF, pancreatin pH 6.8, up to 120 minutes",remained intact
same,CPMV RNA in any tissues examined,[3]; day 5 or day 7 post-inoculation,not detected
same,"CPMV RNA detected in bone marrow, mice positive/examined","[3]; D1, Non-perfused",3/3
same,"CPMV RNA detected in brain, mice positive/examined","[3]; D1, Non-perfused",3/3
same,"CPMV RNA detected in duodenum, mice positive/examined","[3]; D1, Non-perfused",3/3
same,"CPMV RNA detected in ileum, mice positive/examined","[3]; D1, Non-perfused",3/3
same,"CPMV RNA detected in jejunum, mice positive/examined","[3]; D1, Non-perfused",3/3
same,"CPMV RNA detected in kidney, mice positive/examined","[3]; D1, Non-perfused",3/3
same,"CPMV RNA detected in liver, mice positive/examined","[3]; D1, Non-perfused",2/3
same,"CPMV RNA detected in lung, mice positive/examined","[3]; D1, Non-perfused",3/3
same,"CPMV RNA detected in spleen, mice positive/examined","[3]; D1, Non-perfused",3/3
same,"CPMV RNA detected in stomach, mice positive/examined","[3]; D1, Non-perfused",3/3
same,"CPMV RNA detected in bone marrow, mice positive/examined","[3]; D1, Perfused",3/3
same,"CPMV RNA detected in brain, mice positive/examined","[3]; D1, Perfused",3/3
same,"CPMV RNA detected in duodenum, mice positive/examined","[3]; D1, Perfused",2/3
same,"CPMV RNA detected in ileum, mice positive/examined","[3]; D1, Perfused",3/3
same,"CPMV RNA detected in jejunum, mice positive/examined","[3]; D1, Perfused",3/3
same,"CPMV RNA detected in kidney, mice positive/examined","[3]; D1, Perfused",3/3
same,"CPMV RNA detected in liver, mice positive/examined","[3]; D1, Perfused",3/3
same,"CPMV RNA detected in lung, mice positive/examined","[3]; D1, Perfused",3/3
same,"CPMV RNA detected in spleen, mice positive/examined","[3]; D1, Perfused",3/3
same,"CPMV RNA detected in stomach, mice positive/examined","[3]; D1, Perfused",3/3
same,"CPMV RNA detected in bone marrow, mice positive/examined","[3]; D2, Non-perfused",3/3
same,"CPMV RNA detected in brain, mice positive/examined","[3]; D2, Non-perfused",3/3
same,"CPMV RNA detected in duodenum, mice positive/examined","[3]; D2, Non-perfused",3/3
same,"CPMV RNA detected in ileum, mice positive/examined","[3]; D2, Non-perfused",3/3
same,"CPMV RNA detected in jejunum, mice positive/examined","[3]; D2, Non-perfused",3/3
same,"CPMV RNA detected in kidney, mice positive/examined","[3]; D2, Non-perfused",3/3
same,"CPMV RNA detected in liver, mice positive/examined","[3]; D2, Non-perfused",3/3
same,"CPMV RNA detected in lung, mice positive/examined","[3]; D2, Non-perfused",3/3
same,"CPMV RNA detected in spleen, mice positive/examined","[3]; D2, Non-perfused",3/3
same,"CPMV RNA detected in stomach, mice positive/examined","[3]; D2, Non-perfused",3/3
same,"CPMV RNA detected in bone marrow, mice positive/examined","[3]; D2, Perfused",3/3
same,"CPMV RNA detected in brain, mice positive/examined","[3]; D2, Perfused",2/3
same,"CPMV RNA detected in duodenum, mice positive/examined","[3]; D2, Perfused",3/3
same,"CPMV RNA detected in ileum, mice positive/examined","[3]; D2, Perfused",3/3
same,"CPMV RNA detected in jejunum, mice positive/examined","[3]; D2, Perfused",3/3
same,"CPMV RNA detected in kidney, mice positive/examined","[3]; D2, Perfused",3/3
same,"CPMV RNA detected in liver, mice positive/examined","[3]; D2, Perfused",3/3
same,"CPMV RNA detected in lung, mice positive/examined","[3]; D2, Perfused",3/3
same,"CPMV RNA detected in spleen, mice positive/examined","[3]; D2, Perfused",3/3
same,"CPMV RNA detected in stomach, mice positive/examined","[3]; D2, Perfused",3/3
same,"CPMV RNA detected in bone marrow, mice positive/examined","[3]; D3, Non-perfused",3/3
same,"CPMV RNA detected in brain, mice positive/examined","[3]; D3, Non-perfused",3/3
same,"CPMV RNA detected in duodenum, mice positive/examined","[3]; D3, Non-perfused",2/3
same,"CPMV RNA detected in ileum, mice positive/examined","[3]; D3, Non-perfused",3/3
same,"CPMV RNA detected in jejunum, mice positive/examined","[3]; D3, Non-perfused",3/3
same,"CPMV RNA detected in kidney, mice positive/examined","[3]; D3, Non-perfused",3/3
same,"CPMV RNA detected in liver, mice positive/examined","[3]; D3, Non-perfused",3/3
same,"CPMV RNA detected in lung, mice positive/examined","[3]; D3, Non-perfused",3/3
same,"CPMV RNA detected in spleen, mice positive/examined","[3]; D3, Non-perfused",3/3
same,"CPMV RNA detected in stomach, mice positive/examined","[3]; D3, Non-perfused",1/3
same,"CPMV RNA detected in bone marrow, mice positive/examined","[3]; D3, Perfused",3/3
same,"CPMV RNA detected in brain, mice positive/examined","[3]; D3, Perfused",3/3
same,"CPMV RNA detected in duodenum, mice positive/examined","[3]; D3, Perfused",3/3
same,"CPMV RNA detected in ileum, mice positive/examined","[3]; D3, Perfused",3/3
same,"CPMV RNA detected in jejunum, mice positive/examined","[3]; D3, Perfused",3/3
same,"CPMV RNA detected in kidney, mice positive/examined","[3]; D3, Perfused",3/3
same,"CPMV RNA detected in liver, mice positive/examined","[3]; D3, Perfused",3/3
same,"CPMV RNA detected in lung, mice positive/examined","[3]; D3, Perfused",3/3
same,"CPMV RNA detected in spleen, mice positive/examined","[3]; D3, Perfused",3/3
same,"CPMV RNA detected in stomach, mice positive/examined","[3]; D3, Perfused",3/3
